The source of these data is patent US10780074B2, “Compounds and uses thereof” (Sunovion Pharmaceuticals Inc., priority 2017, dated 2020).

Structures are written as SMILES. Structures can show the parent of a compound that is named as a salt. Where two headings read alike, the source gives them in different places. Some results are limits rather than exact numbers.

One may read the minimal effective dose as the smallest amount tested that counted as effective.

For this assay, the system named is behaviors of compound-treated mice. In words: Neuropharmacological Assay (SmartCube). The assay is classed as in vivo. The following applies: for minimal effective dose: Mus musculus, ip, 0.25 h, dose having 50% or more total activity in SmartCube, read-out: MED (minimal effective dose). The method, boiled down:
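Behavioral signatures were captured automatically by video, and each drug class received a probability for the best of three i.p. doses given 15 min pre-test (vehicle: Pharmasolve/PEG/propylene glycol). Potency is given as MED, the lowest mpk dose (typically 0.3–30) reaching 50% or more total activity.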

Setting [1] is: i.p. 15 min before behavioral test, most efficacious dose(s) of 3 doses.
[2] abbreviates: SmartCube, i.p. 15 min before test, most efficacious dose(s).

On to `CNC[C@H]1OCc2c(-c3cccnc3)cccc21` [Compound 34, (S)—N-Methyl-1-(4-(pyridin-3-yl)-1,3-dihydroisobenzofuran-1-yl)methanamine hydrochloride salt], for which the minimal effective dose (i.p.) was not above 3 mg/kg. Further, under setting [1], the “AD: ADHD (probability that activity matches class)” value (shortened to “AD: ADHD”) was “+ (LOQ ≤ + <5%)”, the “AG: analgesic (probability that activity matches class)” value (from here on “AG: analgesic”) is recorded as “+ (LOQ ≤ + <5%)”, the “AX: anxiolytic (probability that activity matches class)” value (from here on “AX: anxiolytic”) is “++ (5% ≤ ++ <25%)” and the “CE: cognitive enhancer (probability that activity matches class)” value (shortened to “CE: cognitive enhancer”) was “+ (LOQ ≤ + <5%)”. Under setting [1], the “DP: anti-depressant (probability that activity matches class)” value (“DP: anti-depressant” below) is on record as “++++ (50% ≤ ++++)”, the “MS: mood stabilizer (probability that activity matches class)” value (shortened to “MS: mood stabilizer”) was “++ (5% ≤ ++ <25%)”, the “PS: anti-psychotic (probability that activity matches class)” value (“PS: anti-psychotic” for short) was “+ (LOQ ≤ + <5%)” and the “SD: sedative hypnotic (probability that activity matches class)” value (shortened to “SD: sedative hypnotic”) was “+ (LOQ ≤ + <5%)”. Under setting [1], the “UN: uncharacterized CNS activity (probability that activity matches class)” value (shortened to “UN: uncharacterized CNS activity”) is recorded as “+ (LOQ ≤ + <5%)”.

Regarding `NC[C@H]1OCCc2c1cccc2-n1cccn1` [Compound 189, (S)-(5-(1H-pyrazol-1-yl)isochroman-1-yl)methanamine hydrochloride salt], the minimal effective dose lay in the range of 10 to 30 mg/kg. In addition, under setting [2], the “AD: ADHD” value was “++ (5% ≤ ++ <25%)”, the “AG: analgesic” value is “+ (LOQ ≤ + <5%)”, the “AX: anxiolytic” value is listed as “++ (5% ≤ ++ <25%)” and the “CE: cognitive enhancer” value was “+ (LOQ ≤ + <5%)”. Under setting [2], the “DP: anti-depressant” value is on record as “++ (5% ≤ ++ <25%)”, the “MS: mood stabilizer” value is reported as “+ (LOQ ≤ + <5%)”, the “PS: anti-psychotic” value is “+ (LOQ ≤ + <5%)” and the “SD: sedative hypnotic” value was “+ (LOQ ≤ + <5%)”. Moreover, the “UN: uncharacterized CNS activity” value under setting [2] is on record as “++++ (50% ≤ ++++)”.

Consider `CNC[C@H]1OCCc2c1cccc2-n1ccnc1` [Compound 183, (S)-1-(5-(1H-Imidazol-1-yl)isochroman-1-yl)-N-methylmethanamine hydrochloride salt], for which the minimal effective dose was 3 to 10 mg/kg. Besides, under setting [2], the “AD: ADHD” value is on record as “+ (LOQ ≤ + <5%)”, the “AG: analgesic” value is “+ (LOQ ≤ + <5%)”, the “AX: anxiolytic” value is “+ (LOQ ≤ + <5%)” and the “CE: cognitive enhancer” value is on record as “+ (LOQ ≤ + <5%)”. In addition, under setting [2], the “DP: anti-depressant” value is listed as “++++ (50% ≤ ++++)”, the “MS: mood stabilizer” value is reported as “+ (LOQ ≤ + <5%)”, the “PS: anti-psychotic” value was “+ (LOQ ≤ + <5%)” and the “SD: sedative hypnotic” value is listed as “+ (LOQ ≤ + <5%)”. In addition, under setting [2], the “UN: uncharacterized CNS activity” value was “++ (5% ≤ ++ <25%)”.

Take `NC[C@@H]1OCCc2c(-c3ccno3)cccc21` (single isomer, unassigned) [Compound 92, hydrochloride salt]: the minimal effective dose (i.p.) is not above 3 mg/kg. For the same compound, under setting [1], the “AD: ADHD” value was “++ (5% ≤ ++ <25%)”, the “AG: analgesic” value is reported as “+ (LOQ ≤ + <5%)”, the “AX: anxiolytic” value is given as “++ (5% ≤ ++ <25%)” and the “CE: cognitive enhancer” value is on record as “+ (LOQ ≤ + <5%)”. Besides, under setting [1], the “DP: anti-depressant” value is on record as “++ (5% ≤ ++ <25%)”, the “MS: mood stabilizer” value is “+ (LOQ ≤ + <5%)”, the “PS: anti-psychotic” value is on record as “+ (LOQ ≤ + <5%)” and the “SD: sedative hypnotic” value is on record as “++ (5% ≤ ++ <25%)”. Further, under setting [1], the “UN: uncharacterized CNS activity” value is given as “+++ (25% ≤ +++ <50%)”.

Consider `CCNC[C@H]1OCCc2c(-c3ccncc3)cccc21` (single isomer, unassigned) [Compound 67, hydrochloride salt], for which, where the note is “i.p.”, the minimal effective dose is not above 3 mg/kg. Under setting [1], the “AD: ADHD” value is on record as “+ (LOQ ≤ + <5%)”, the “AG: analgesic” value is given as “+ (LOQ ≤ + <5%)”, the “AX: anxiolytic” value was “+ (LOQ ≤ + <5%)” and the “CE: cognitive enhancer” value is given as “+ (LOQ ≤ + <5%)”. Also, under setting [1], the “DP: anti-depressant” value is “++++ (50% ≤ ++++)”, the “MS: mood stabilizer” value is on record as “+ (LOQ ≤ + <5%)”, the “PS: anti-psychotic” value is given as “+ (LOQ ≤ + <5%)” and the “SD: sedative hypnotic” value is reported as “+ (LOQ ≤ + <5%)”. The “UN: uncharacterized CNS activity” value under setting [1] is “++ (5% ≤ ++ <25%)”.

Take `CNC[C@H]1OCCc2c(-c3ccncc3)cccc21` [Compound 18, (S)—N-Methyl(5-(pyridin-4-yl)isochroman-1-yl)methanamine dihydrochloride salt]: under “i.p.”, the minimal effective dose was 10 to 30 mg/kg. Besides, under setting [1], the “AD: ADHD” value was “+ (LOQ ≤ + <5%)”, the “AG: analgesic” value is “+ (LOQ ≤ + <5%)”, the “AX: anxiolytic” value was “+ (LOQ ≤ + <5%)” and the “CE: cognitive enhancer” value is listed as “+ (LOQ ≤ + <5%)”. Moreover, under setting [1], the “DP: anti-depressant” value was “++++ (50% ≤ ++++)”, the “MS: mood stabilizer” value is recorded as “+ (LOQ ≤ + <5%)”, the “PS: anti-psychotic” value is recorded as “+ (LOQ ≤ + <5%)” and the “SD: sedative hypnotic” value is “+ (LOQ ≤ + <5%)”. Also, under setting [1], the “UN: uncharacterized CNS activity” value is recorded as “+ (LOQ ≤ + <5%)”.

On to `CNCC1OCCc2c(-c3ccnnc3)cccc21` (centres unmarked) [Compound 54, N-Methyl-1-(5-(pyridazin-4-yl)isochroman-1-yl)methanamine hydrochloride salt], for which, for the setting “i.p.”, the minimal effective dose is 3 to 10 mg/kg. In addition, under setting [1], the “AD: ADHD” value is “+ (LOQ ≤ + <5%)”, the “AG: analgesic” value is given as “+ (LOQ ≤ + <5%)”, the “AX: anxiolytic” value was “+ (LOQ ≤ + <5%)” and the “CE: cognitive enhancer” value is “++ (5% ≤ ++ <25%)”. Besides, under setting [1], the “DP: anti-depressant” value is recorded as “++++ (50% ≤ ++++)”, the “MS: mood stabilizer” value is on record as “+ (LOQ ≤ + <5%)”, the “PS: anti-psychotic” value is “+ (LOQ ≤ + <5%)” and the “SD: sedative hypnotic” value is “+ (LOQ ≤ + <5%)”. Also, the “UN: uncharacterized CNS activity” value under setting [1] was “+ (LOQ ≤ + <5%)”.

In the case of `c1cc(-c2ccncc2)c2c(c1)[C@H](CNC1CC1)OCC2` (single isomer, unassigned) [Compound 180, hydrochloride salt], the minimal effective dose (i.p.) fell in the range of 3 to 10 mg/kg. Moreover, under setting [1], the “AD: ADHD” value is “+ (LOQ ≤ + <5%)”, the “AG: analgesic” value is “+ (LOQ ≤ + <5%)”, the “AX: anxiolytic” value is reported as “++ (5% ≤ ++ <25%)” and the “CE: cognitive enhancer” value is “+ (LOQ ≤ + <5%)”. For the same compound, under setting [1], the “DP: anti-depressant” value is “++ (5% ≤ ++ <25%)”, the “MS: mood stabilizer” value is “+ (LOQ ≤ + <5%)”, the “PS: anti-psychotic” value is “+ (LOQ ≤ + <5%)” and the “SD: sedative hypnotic” value is listed as “+ (LOQ ≤ + <5%)”. Also, the “UN: uncharacterized CNS activity” value under setting [1] is reported as “++++ (50% ≤ ++++)”.

In the case of `NC[C@@H]1OCCc2c(-c3cnccn3)cccc21` (single isomer, unassigned) [Compound 82, hydrochloride salt], where the note is “i.p.”, the minimal effective dose was in the range of 10 to 30 mg/kg. Also, under setting [1], the “AD: ADHD” value was “+ (LOQ ≤ + <5%)”, the “AG: analgesic” value is given as “+ (LOQ ≤ + <5%)”, the “AX: anxiolytic” value was “++ (5% ≤ ++ <25%)” and the “CE: cognitive enhancer” value is “+ (LOQ ≤ + <5%)”. Further, under setting [1], the “DP: anti-depressant” value is given as “+ (LOQ ≤ + <5%)”, the “MS: mood stabilizer” value is “+ (LOQ ≤ + <5%)”, the “PS: anti-psychotic” value is on record as “+ (LOQ ≤ + <5%)” and the “SD: sedative hypnotic” value is on record as “+ (LOQ ≤ + <5%)”. In addition, under setting [1], the “UN: uncharacterized CNS activity” value was “+ (LOQ ≤ + <5%)”.

As to `NC[C@@H]1OCCc2c(-c3ccncn3)cccc21` (single isomer, unassigned) [Compound 74, hydrochloride salt], the minimal effective dose (i.p.) is more than 30 mg/kg. Besides, under setting [1], the “AD: ADHD” value is listed as “+ (LOQ ≤ + <5%)”, the “AG: analgesic” value is reported as “+ (LOQ ≤ + <5%)”, the “AX: anxiolytic” value was “+ (LOQ ≤ + <5%)” and the “CE: cognitive enhancer” value was “+ (LOQ ≤ + <5%)”. In addition, under setting [1], the “DP: anti-depressant” value is given as “++ (5% ≤ ++ <25%)”, the “MS: mood stabilizer” value is given as “+ (LOQ ≤ + <5%)”, the “PS: anti-psychotic” value is given as “+ (LOQ ≤ + <5%)” and the “SD: sedative hypnotic” value is recorded as “+ (LOQ ≤ + <5%)”. Moreover, the “UN: uncharacterized CNS activity” value under setting [1] is given as “+ (LOQ ≤ + <5%)”.

Turning to `CNC[C@H]1OCCc2c(-c3ccnc(C)c3)cccc21` (single isomer, unassigned) [Compound 121, hydrochloride salt], the minimal effective dose (i.p.) was not above 3 mg/kg. Also, under setting [1], the “AD: ADHD” value is on record as “++ (5% ≤ ++ <25%)”, the “AG: analgesic” value is “+ (LOQ ≤ + <5%)”, the “AX: anxiolytic” value was “++ (5% ≤ ++ <25%)” and the “CE: cognitive enhancer” value was “+ (LOQ ≤ + <5%)”. Moreover, under setting [1], the “DP: anti-depressant” value was “++++ (50% ≤ ++++)”, the “MS: mood stabilizer” value is listed as “+ (LOQ ≤ + <5%)”, the “PS: anti-psychotic” value is listed as “+ (LOQ ≤ + <5%)” and the “SD: sedative hypnotic” value was “++ (5% ≤ ++ <25%)”. Besides, the “UN: uncharacterized CNS activity” value under setting [1] is listed as “+ (LOQ ≤ + <5%)”.
